Experimental data published in PubChem BioAssay AID248 (DTP/NCI, 2004).
“And” between values parts separate entries of the source, which are not always exact repeats. Identical values can stand only once. Inconclusive results and toxic doses are left out. Rule as the data show it: active = T/C of 150% or more; inactive = T/C below 125%.

Test system: L1210 leukemia ip in BDF1 mice, survival T/C
Test: NCI In Vivo Anticancer Drug Screen. Data for tumor model L1210 Leukemia (intraperitoneal) in B6D2F1 (BDF1) mice
Details: endpoint: mean survival time, higher = longer survival
In short: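 Read-out is survival time, reported as the treated-group measurement over the vehicle-control measurement.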

[1] = dose: 50.0 mg/kg/injection, schedule: Q01DX009 (ip), vehicle: saline with Tween-80
[2] = dose: 100.0 mg/kg/injection, schedule: Q01DX009 (ip), vehicle: saline with Tween-80
[3] = dose: 200.0 mg/kg/injection, schedule: Q01DX009 (ip), vehicle: saline with Tween-80
[4] = dose: 100.0 mg/kg/injection, schedule: Q04DX003 (ip), vehicle: saline
[5] = dose: 200.0 mg/kg/injection, schedule: Q04DX003 (ip), vehicle: saline
[6] = dose: 100.0 mg/kg/injection, schedule: Q01DX009 (ip), vehicle: Klucel (hydroxypropylcellulose) (HPC)
[7] = dose: 100.0 mg/kg/injection, schedule: Q04DX003 (ip), vehicle: Klucel (hydroxypropylcellulose) (HPC)
[8] = dose: 200.0 mg/kg/injection, schedule: Q01DX009 (ip), vehicle: Klucel (hydroxypropylcellulose) (HPC)
[9] = dose: 200.0 mg/kg/injection, schedule: Q04DX003 (ip), vehicle: Klucel (hydroxypropylcellulose) (HPC)
[10] = dose: 400.0 mg/kg/injection, schedule: Q01DX009 (ip), vehicle: Klucel (hydroxypropylcellulose) (HPC)
[11] = dose: 400.0 mg/kg/injection, schedule: Q04DX003 (ip), vehicle: Klucel (hydroxypropylcellulose) (HPC)
[12] = dose: 100.0 mg/kg/injection, schedule: Q04DX003 (ip), vehicle: saline with Tween-80

Measured: T/C

NC(=O)n1cccn1
inactive: dose: 25.0 mg/kg/injection, schedule: Q01DX Z (ip), vehicle: carboxymethylcellulose (CMC) 100 % of control | dose: 50.0 mg/kg/injection, schedule: Q01DX Z (ip), vehicle: carboxymethylcellulose (CMC) 102 % of control | dose: 100.0 mg/kg/injection, schedule: Q01DX Z (ip), vehicle: carboxymethylcellulose (CMC) 102 % of control | dose: 200.0 mg/kg/injection, schedule: Q01DX Z (ip), vehicle: carboxymethylcellulose (CMC) 100 % of control and 109 % of control | dose: 400.0 mg/kg/injection, schedule: Q01DX Z (ip), vehicle: carboxymethylcellulose (CMC) 102 % of control

c1ccc2cc(C3SCCS3)ccc2c1
inactive: dose: 75.0 mg/kg/injection, schedule: Q04DX003 (ip), vehicle: Klucel (hydroxypropylcellulose) (HPC) 88 % of control | dose: 100.0 mg/kg/injection, schedule: Q01DX001 (ip), vehicle: Klucel (hydroxypropylcellulose) (HPC) 95 % of control | dose: 150.0 mg/kg/injection, schedule: Q04DX003 (ip), vehicle: Klucel (hydroxypropylcellulose) (HPC) 86 % of control | dose: 200.0 mg/kg/injection, schedule: Q01DX001 (ip), vehicle: Klucel (hydroxypropylcellulose) (HPC) 97 % of control | dose: 300.0 mg/kg/injection, schedule: Q04DX003 (ip), vehicle: Klucel (hydroxypropylcellulose) (HPC) 110 % of control | dose: 400.0 mg/kg/injection, schedule: Q01DX001 (ip), vehicle: Klucel (hydroxypropylcellulose) (HPC) 101 % of control

Oc1cc(O)c2c(c1)OC(O)(c1ccc(O)c(O)c1)C(O)O2 (stereo unspecified) (tested in a mixture with another compound)
inactive: [1] 104 % of control | [2] 95 % of control | [3] 102 % of control

Oc1ccc(Sc2ccc(O)cc2)cc1
inactive: [4] 101 % of control | [5] 92 % of control

CCCCCCCCCC(=O)CC
inactive: [6] 104 % of control | [7] 110 % of control | [8] 96 % of control | [9] 97 % of control | [10] 102 % of control | [11] 93 % of control

O=S(=O)(NC1C2CC3C1N3N2)c1ccccc1 (stereo unspecified)
inactive: dose: 50.0 mg/kg/injection, schedule: Q04DX003 (ip), vehicle: saline 90 % of control | [4] 114 % of control | [5] 98 % of control

CCOc1ccn(CC(=O)N2CCOCC2)c(=O)n1
inactive: dose: 100.0 mg/kg/injection, schedule: Q01DX009 (ip), vehicle: water 93 % of control | dose: 100.0 mg/kg/injection, schedule: Q04DX003 (ip), vehicle: water 105 % of control | dose: 200.0 mg/kg/injection, schedule: Q01DX009 (ip), vehicle: water 95 % of control | dose: 200.0 mg/kg/injection, schedule: Q04DX003 (ip), vehicle: water 100 % of control | dose: 400.0 mg/kg/injection, schedule: Q01DX009 (ip), vehicle: water 98 % of control | dose: 400.0 mg/kg/injection, schedule: Q04DX003 (ip), vehicle: water 95 % of control

CCC/C(=N\NC(=O)c1ccc(OC)cc1)c1ccccc1
inactive: [1] 94 % of control | [2] 102 % of control | [3] 94 % of control

Clc1c(CBr)ccc(CBr)c1Cl
inactive: dose: 6.25 mg/kg/injection, schedule: Q01DX009 (ip), vehicle: saline with Tween-80 91 % of control | dose: 6.25 mg/kg/injection, schedule: Q04DX003 (ip), vehicle: Klucel (hydroxypropylcellulose) (HPC) 95 % of control | dose: 12.5 mg/kg/injection, schedule: Q01DX009 (ip), vehicle: saline with Tween-80 89 % of control | dose: 12.5 mg/kg/injection, schedule: Q04DX003 (ip), vehicle: Klucel (hydroxypropylcellulose) (HPC) 92 % of control | dose: 25.0 mg/kg/injection, schedule: Q01DX009 (ip), vehicle: saline with Tween-80 96 % of control | dose: 25.0 mg/kg/injection, schedule: Q04DX003 (ip), vehicle: Klucel (hydroxypropylcellulose) (HPC) 93 % of control

Nc1ccccc1-c1ccccc1N
inactive: dose: 25.0 mg/kg/injection, schedule: Q04DX002 (ip), vehicle: saline 100 % of control | dose: 50.0 mg/kg/injection, schedule: Q04DX002 (ip), vehicle: saline 98 % of control | [6] 96 % of control | dose: 100.0 mg/kg/injection, schedule: Q04DX002 (ip), vehicle: saline 114 % of control | [7] 94 % of control | [8] 102 % of control | [9] 91 % of control | [10] 93 % of control | [11] 104 % of control

c1ccc(CC2NCCc3ccccc32)cc1 (stereo unspecified)
inactive: dose: 25.0 mg/kg/injection, schedule: Q04DX003 (ip), vehicle: acetone 102 % of control | dose: 25.0 mg/kg/injection, schedule: Q04DX003 (ip), vehicle: saline with Tween-80 99 % of control | dose: 50.0 mg/kg/injection, schedule: Q04DX003 (ip), vehicle: acetone 102 % of control | dose: 50.0 mg/kg/injection, schedule: Q04DX003 (ip), vehicle: saline with Tween-80 94 % of control | dose: 100.0 mg/kg/injection, schedule: Q01DX001 (ip), vehicle: acetone 89 % of control | dose: 100.0 mg/kg/injection, schedule: Q04DX003 (ip), vehicle: acetone 91 % of control | [12] 102 % of control

CCOC(=O)C1(c2cc(NS(=O)(=O)N(C)C)c(Cl)cc2NS(=O)(=O)N(C)C)CCCC1=O (stereo unspecified)
inactive: dose: 50.0 mg/kg/injection, schedule: Q01DX001 (ip), vehicle: saline 104 % of control | dose: 100.0 mg/kg/injection, schedule: Q01DX001 (ip), vehicle: saline 102 % of control | dose: 200.0 mg/kg/injection, schedule: Q01DX001 (ip), vehicle: saline 91 % of control

CN1CCC=Cc2ccccc21
inactive: dose: 100.0 mg/kg/injection, schedule: Q01DX009 (ip), vehicle: saline 97 % of control | [4] 92 % of control | [5] 95 % of control | dose: 400.0 mg/kg/injection, schedule: Q04DX003 (ip), vehicle: saline 90 % of control

Cc1cc([N+](=O)[O-])ccc1NC(=O)Nc1cccc(C(F)(F)F)c1
inactive: [6] 88 % of control | [8] 92 % of control | [10] 90 % of control

Cc1ccc(N=C(c2ccc([N+](=O)[O-])cc2)c2ccc([N+](=O)[O-])cc2)cc1
inactive: [6] 97 % of control | [7] 96 % of control | [8] 96 % of control | [9] 102 % of control | [10] 102 % of control | [11] 96 % of control

CCCC(=O)C(CCN(C)C)c1ccccn1 (stereo unspecified)
inactive: dose: 44.0 mg/kg/injection, schedule: Q01DX Z (ip), vehicle: methylcellulose (MC) 94 % of control | dose: 66.0 mg/kg/injection, schedule: Q01DX Z (ip), vehicle: methylcellulose (MC) 107 % of control

O=C(c1ccccc1)c1cccc([N+](=O)[O-])c1
inactive: [12] 98 % of control | dose: 200.0 mg/kg/injection, schedule: Q04DX003 (ip), vehicle: saline with Tween-80 93 % of control | dose: 400.0 mg/kg/injection, schedule: Q04DX003 (ip), vehicle: saline with Tween-80 89 % of control

Cc1nn(C(N)=S)c(C)c1N=Nc1cccc(Cl)c1
inactive: dose: 75.0 mg/kg/injection, schedule: Q01DX001 (ip), vehicle: other 96 % of control | dose: 150.0 mg/kg/injection, schedule: Q01DX001 (ip), vehicle: other 100 % of control | dose: 300.0 mg/kg/injection, schedule: Q01DX001 (ip), vehicle: other 105 % of control

COc1ccccc1/C=C(/C)[N+](=O)[O-]
inactive: dose: 100.0 mg/kg/injection, schedule: Q01DX001 (ip), vehicle: carboxymethylcellulose (CMC) 97 % of control | dose: 200.0 mg/kg/injection, schedule: Q01DX001 (ip), vehicle: carboxymethylcellulose (CMC) 97 % of control | dose: 400.0 mg/kg/injection, schedule: Q01DX001 (ip), vehicle: carboxymethylcellulose (CMC) 100 % of control

CC(C)(C)C(CCC(=O)O)CC(=O)O (stereo unspecified)
inactive: [3] 90 % of control | dose: 400.0 mg/kg/injection, schedule: Q01DX009 (ip), vehicle: saline with Tween-80 89 % of control

CCOC(=O)C1(C(=O)OCC)CCC(O)N1C(=O)c1cc(OC)c(OC)cc1[N+](=O)[O-] (stereo unspecified)
inactive: [7] 97 % of control | [9] 99 % of control | [11] 97 % of control

O=c1[nH]c2cnccc2c(=O)n1OS(=O)(=O)c1ccccc1
inactive: dose: 50.0 mg/kg/injection, schedule: Q01DX009 (ip), vehicle: Klucel (hydroxypropylcellulose) (HPC) 90 % of control | [6] 90 % of control | [8] 97 % of control
